Test system: HPV-positive TC-1 tumor cells
Test: TC-1 tumor model, tumor growth and survival after single treatment
Assay type: in vivo, B6 mice
Method: FIG. 1 provides a survival plot: B6 mice (n=4 per group) were implanted with 50,000 TC1 tumor cells subcutaneously. On day 10, group 2 received tumor vaccine R-DOTAP−HPV mix formulation (100 μl) (ASP3-250-HPV mix) containing HPV antigens (ASP3/R-DOTAP (S.C.) in the opposite flank of the tumor and group 3 mice received intra-tumoral injection of R-DOTAP (50 μl of 6 mg/ml) (RDOTAP (IT)).
Three groups of mice were injected on day 0 with 50,000 HPV-positive TC-1 tumor cells. In order for a stringent test of antitumor effect, the tumors were allowed to grow to a size of 6-7 mm prior to treatment on Day 10. The aggressively growing tumors reached a size of 10 mm by Day 14. Group 1 mice (Naïve) were left untreated and had to be sacrificed by Day 16. The mice in Group 2 (ASP3/R-DOTAP S.C.) were treated with one subcutaneous injection of R-DOTAP+HPV16(49-57) antigen injection on the opposite flank to the tumor. The mice in Group 3 (R-DOTAP IT) were treated with a single intra-tumoral injection of R-DOTAP only. The tumor sizes and survival of all 3 groups were monitored.
FIG. 1 provides a survival plot: B6 mice (n=4 per group) were implanted with 50,000 TC1 tumor cells subcutaneously.

CCCCCCCC/C=C\CCCCCCCC(=O)OC[C@@H](C[N+](C)(C)C)OC(=O)CCCCCCC/C=C\CCCCCCCC [R-DOTAP, (R)-1,2-dioleoyl-3-trimethylammonium propane]
antitumor efficacy (survival plot, FIG. 1) (intra-tumoral R-DOTAP only, 50 μl of 6 mg/ml, no antigen, compared with sub-cutaneous R-DOTAP+antigen): comparable antitumor efficacy | tumor growth rates (tumors 6-7 mm at single treatment on Day 10, data not shown): dramatic slowing of the tumor growth rates

From patent publication US20220160867A1, “METHODS AND COMPOSITIONS COMPRISING CATIONIC LIPIDS FOR IMMUNOTHERAPY BY DIRECT TUMOR INJECTION” (PDS Biotechnology Corporation, priority 2020, published 2022)
